Reference: US20250313604A1, “PEPTIDE PHARMACEUTICALS FOR INSULIN RESISTANCE” (Mederis Diabetes LLC, priority 2014, published 2025)

Key:
[1] = in water; cited from earlier work
db/db mice = test: In vivo assay in db/db mice (blood glucose, body weight, food consumption)
[2] = high dose (300 nmoles/kg) s.c., Days 2 and 3

| Compound | CMC [1] | db/db mice - Mean Blood Glucose (db/db mice; 250 nmole/kg s.c., 0 hr) | db/db mice - Mean Blood Glucose (db/db mice; 250 nmole/kg s.c., 10 hr) | db/db mice - Mean Blood Glucose (db/db mice; 250 nmole/kg s.c., 24 hr) | db/db mice - Mean Blood Glucose (db/db mice; 250 nmole/kg s.c., 48 hr) | other results |
| --- | --- | --- | --- | --- | --- | --- |
| CCCCCCCCCCCCCCO[C@@H]1O[C@H](CO)[C@@H](O[C@@H]2O[C@@H](CO)[C@H](O)[C@@H](O)[C@@H]2O)[C@H](O)[C@H]1O (stereo in doubt) [Tetradecyl maltoside] | 0.01 mM |  |  |  |  |  |
| CCCCCCCCCCCCCO[C@@H]1O[C@H](CO)[C@@H](OC2OC(CO)C(O)C(O)C2O)[C@H](O)[C@H]1O (stereo in doubt) [Tridecyl maltoside] | 0.03 mM |  |  |  |  |  |
| CCCCCCCCCCO[C@@H]1O[C@H](CO)[C@@H](O[C@H]2O[C@H](CO)[C@@H](O)[C@H](O)[C@H]2O)[C@H](O)[C@H]1O [Decyl maltoside] | 1.8 mM |  |  |  |  |  |
| CCCCCCCCO[C@@H]1O[C@H](C(=O)NCCCC[C@H](NC(=O)[C@@H](NC(=O)[C@H](Cc2ccccc2)NC(=O)[C@H](CCC(=O)O)NC(=O)[C@@H]2CCCCNC(=O)CC[C@H](NC(=O)[C@H](CC(=O)O)NC(=O)[C@H](CC(C)C)NC(=O)[C@H](Cc3ccc(O)cc3)NC(=O)[C@H](CCCCN)NC(=O)[C@H](CO)NC(=O)[C@H](Cc3ccc(O)cc3)NC(=O)[C@H](CC(=O)O)NC(=O)[C@H](CO)NC(=O)[C@@H](NC(=O)[C@H](Cc3ccccc3)NC(=O)[C@@H](NC(=O)CNC(=O)[C@H](CCC(N)=O)NC(=O)C(C)(C)NC(=O)[C@@H](N)Cc3c[nH]cn3)[C@@H](C)O)[C@@H](C)O)C(=O)N[C@@H](CCC(N)=O)C(=O)N[C@@H](C)C(=O)N[C@@H](C)C(=O)N2)[C@@H](C)CC)C(=O)N[C@@H](Cc2c[nH]c3ccccc23)C(=O)N[C@@H](CC(C)C)C(=O)N[C@@H](CC(C)C)C(=O)N[C@@H](CCC(N)=O)C(=O)N[C@H](C(N)=O)[C@@H](C)O)[C@@H](O)[C@H](O)[C@H]1O [EU-A992] |  | 405 mg/dL | 104 mg/dL | 112 mg/dL | 130 mg/dL |  |
| CCCCCCCCCCCCCCO[C@@H]1O[C@H](C(=O)NCCCC[C@H](NC(=O)[C@@H](NC(=O)[C@H](Cc2ccccc2)NC(=O)[C@H](CCC(=O)O)NC(=O)[C@@H]2CCCCNC(=O)CC[C@H](NC(=O)[C@H](CC(=O)O)NC(=O)[C@H](CC(C)C)NC(=O)[C@H](Cc3ccc(O)cc3)NC(=O)[C@H](CCCCN)NC(=O)[C@H](CO)NC(=O)[C@H](Cc3ccc(O)cc3)NC(=O)[C@H](CC(=O)O)NC(=O)[C@H](CO)NC(=O)[C@@H](NC(=O)[C@H](Cc3ccccc3)NC(=O)[C@@H](NC(=O)CNC(=O)[C@H](CCC(N)=O)NC(=O)C(C)(C)NC(=O)[C@@H](N)Cc3c[nH]cn3)[C@@H](C)O)[C@@H](C)O)C(=O)N[C@@H](CCC(N)=O)C(=O)N[C@@H](C)C(=O)N[C@@H](C)C(=O)N2)[C@@H](C)CC)C(=O)N[C@@H](Cc2c[nH]c3ccccc23)C(=O)N[C@@H](CC(C)C)C(=O)N[C@@H](CC(C)C)C(=O)N[C@@H](CCC(N)=O)C(=O)N[C@H](C(N)=O)[C@@H](C)O)[C@@H](O)[C@H](O)[C@H]1O [EU-A994, His1-Aib2-Gln3-Gly4-Thr5-Phe6-Thr7-Ser8-Asp9-Tyr10-Ser11-Lys12-Tyr13-Leu14-Asp15-Glu*16-Gln17-Ala18-Ala19-Lys*20-Glu21-Phe22-Ile23-Lys(N-omega(1-tetradecylbeta-D-glucuronyl))24-Trp25-Leu26-Leu27-Gln28-Thr29-NH2] |  |  |  |  |  | db/db mice - Mean Blood Glucose (db/db mice; 300 nmole/kg s.c., 0 hr): 554 mg/dL; db/db mice - Mean Blood Glucose (db/db mice; 300 nmole/kg s.c., 10 hr): 242 mg/dL; db/db mice - Mean Blood Glucose (db/db mice; 300 nmole/kg s.c., 24 hr): 209 mg/dL; db/db mice - Mean Blood Glucose (db/db mice; 300 nmole/kg s.c., 48 hr): 385 mg/dL; body weight changes against vehicle (db/db mice; [2]): Significant body weight changes |
| CCCCCCCCCCCCCCCCCCO[C@@H]1O[C@H](CO[C@H]2O[C@H](C(=O)NCCCC[C@H](NC(=O)[C@@H](NC(=O)[C@H](Cc3ccccc3)NC(=O)[C@H](CCC(=O)O)NC(=O)[C@@H]3CCCCNC(=O)CC[C@H](NC(=O)[C@H](CC(=O)O)NC(=O)[C@H](CC(C)C)NC(=O)[C@H](Cc4ccc(O)cc4)NC(=O)[C@H](CCCCN)NC(=O)[C@H](CO)NC(=O)[C@H](Cc4ccc(O)cc4)NC(=O)[C@H](CC(=O)O)NC(=O)[C@H](CO)NC(=O)[C@@H](NC(=O)[C@H](Cc4ccccc4)NC(=O)[C@@H](NC(=O)CNC(=O)[C@H](CCC(N)=O)NC(=O)C(C)(C)NC(=O)[C@@H](N)Cc4c[nH]cn4)[C@@H](C)O)[C@@H](C)O)C(=O)N[C@@H](CCC(N)=O)C(=O)N[C@@H](C)C(=O)N[C@@H](C)C(=O)N3)[C@@H](C)CC)C(=O)N[C@@H](Cc3c[nH]c4ccccc34)C(=O)N[C@@H](CC(C)C)C(=O)N[C@@H](CC(C)C)C(=O)N[C@@H](CCC(N)=O)C(=O)N[C@H](C(N)=O)[C@@H](C)O)[C@H](O)[C@H](O)[C@H]2O)[C@@H](O)[C@H](O)[C@H]1O [EU-A1026, His1-Aib2-Gln3-Gly4-Thr5-Phe6-Thr7-Ser8-Asp9-Tyr10-Ser11-Lys12-Tyr13-Leu14-Asp15-Glu*16-Gln17 Ala18-Ala19-Lys*20-Glu21-Phe22-Ile23-Lys (N-omega (1-octadecyl beta-D-melibiouronyl)) 24-Trp25-Leu26-Leu27-Gln28-Thr29-NH2] |  |  |  |  |  | db/db mice - Mean Blood Glucose (db/db mice; 300 nmole/kg s.c., 0 hr): 531 mg/dL; db/db mice - Mean Blood Glucose (db/db mice; 300 nmole/kg s.c., 10 hr): 399 mg/dL; db/db mice - Mean Blood Glucose (db/db mice; 300 nmole/kg s.c., 24 hr): 438 mg/dL; db/db mice - Mean Blood Glucose (db/db mice; 300 nmole/kg s.c., 48 hr): 505 mg/dL; body weight changes against vehicle (db/db mice; [2]): Significant body weight changes; glucose levels versus liraglutide (db/db mice; low dose (100 nmoles/kg) s.c., 10 hours): significantly different from liraglutide; body weight changes against vehicle (db/db mice; low dose (100 nmoles/kg) s.c., Days 3 and 4): Significant body weight changes |
| CCCCCCCCCCO[C@@H]1O[C@H](C(=O)NCCCC[C@H](NC(=O)[C@@H](NC(=O)[C@H](Cc2ccccc2)NC(=O)[C@H](CCC(=O)O)NC(=O)[C@@H]2CCCCNC(=O)CC[C@H](NC(=O)[C@H](CC(=O)O)NC(=O)[C@H](CC(C)C)NC(=O)[C@H](Cc3ccc(O)cc3)NC(=O)[C@H](CCCCN)NC(=O)[C@H](CO)NC(=O)[C@H](Cc3ccc(O)cc3)NC(=O)[C@H](CC(=O)O)NC(=O)[C@H](CO)NC(=O)[C@@H](NC(=O)[C@H](Cc3ccccc3)NC(=O)[C@@H](NC(=O)CNC(=O)[C@H](CCC(N)=O)NC(=O)C(C)(C)NC(=O)[C@@H](N)Cc3c[nH]cn3)[C@@H](C)O)[C@@H](C)O)C(=O)N[C@@H](CCC(N)=O)C(=O)N[C@@H](C)C(=O)N[C@@H](C)C(=O)N2)[C@@H](C)CC)C(=O)N[C@@H](Cc2c[nH]c3ccccc23)C(=O)N[C@@H](CC(C)C)C(=O)N[C@@H](CC(C)C)C(=O)N[C@@H](CCC(N)=O)C(=O)N[C@H](C(N)=O)[C@@H](C)O)[C@@H](O)[C@H](O)[C@H]1O [EU-A1167] |  | 379 mg/dL | 171 mg/dL | 117 mg/dL | 113 mg/dL |  |
| CCCCCCCCCCCO[C@@H]1O[C@H](C(=O)NCCCC[C@H](NC(=O)[C@@H](NC(=O)[C@H](Cc2ccccc2)NC(=O)[C@H](CCC(=O)O)NC(=O)[C@@H]2CCCCNC(=O)CC[C@H](NC(=O)[C@H](CC(=O)O)NC(=O)[C@H](CC(C)C)NC(=O)[C@H](Cc3ccc(O)cc3)NC(=O)[C@H](CCCCN)NC(=O)[C@H](CO)NC(=O)[C@H](Cc3ccc(O)cc3)NC(=O)[C@H](CC(=O)O)NC(=O)[C@H](CO)NC(=O)[C@@H](NC(=O)[C@H](Cc3ccccc3)NC(=O)[C@@H](NC(=O)CNC(=O)[C@H](CCC(N)=O)NC(=O)C(C)(C)NC(=O)[C@@H](N)Cc3c[nH]cn3)[C@@H](C)O)[C@@H](C)O)C(=O)N[C@@H](CCC(N)=O)C(=O)N[C@@H](C)C(=O)N[C@@H](C)C(=O)N2)[C@@H](C)CC)C(=O)N[C@@H](Cc2c[nH]c3ccccc23)C(=O)N[C@@H](CC(C)C)C(=O)N[C@@H](CC(C)C)C(=O)N[C@@H](CCC(N)=O)C(=O)N[C@H](C(N)=O)[C@@H](C)O)[C@@H](O)[C@H](O)[C@H]1O [EU-A1168] |  | 380 mg/dL | 133 mg/dL | 169 mg/dL | 164 mg/dL |  |
